The subject of series [1] is Mus musculus. The series is described as follows: Antiinflammatory activity in BALB/c mouse model of LPS induced sepsis assessed as inhibition of TNF-alpha production at 1.25 to 5 mg/kg, IG administered once a day for 3 days followed by LPS stimulation for 12 hrs starting from 2 hrs post last dose by qRT-PCR analysis. The format is functional, organism-based. Conditions: dose 1.25-5 mg/kg, time 86.0 hrs.

Series [2] is described as follows: AUC(0 to infinity) in Sprague-Dawley rat administered intragastrically. Further details: route ig. Conditions: in vivo, po. It counts as ADME.
Series [3] is described as follows: Cmax in Sprague-Dawley rat administered intragastrically. It counts as ADME. Further details: route ig. Conditions: in vivo, po.
Series [4] concerns the target T1, Serine/threonine-protein kinase TBK1 (Mus musculus) (UniProt Q9WUN2).
T1 sequence (whole entry): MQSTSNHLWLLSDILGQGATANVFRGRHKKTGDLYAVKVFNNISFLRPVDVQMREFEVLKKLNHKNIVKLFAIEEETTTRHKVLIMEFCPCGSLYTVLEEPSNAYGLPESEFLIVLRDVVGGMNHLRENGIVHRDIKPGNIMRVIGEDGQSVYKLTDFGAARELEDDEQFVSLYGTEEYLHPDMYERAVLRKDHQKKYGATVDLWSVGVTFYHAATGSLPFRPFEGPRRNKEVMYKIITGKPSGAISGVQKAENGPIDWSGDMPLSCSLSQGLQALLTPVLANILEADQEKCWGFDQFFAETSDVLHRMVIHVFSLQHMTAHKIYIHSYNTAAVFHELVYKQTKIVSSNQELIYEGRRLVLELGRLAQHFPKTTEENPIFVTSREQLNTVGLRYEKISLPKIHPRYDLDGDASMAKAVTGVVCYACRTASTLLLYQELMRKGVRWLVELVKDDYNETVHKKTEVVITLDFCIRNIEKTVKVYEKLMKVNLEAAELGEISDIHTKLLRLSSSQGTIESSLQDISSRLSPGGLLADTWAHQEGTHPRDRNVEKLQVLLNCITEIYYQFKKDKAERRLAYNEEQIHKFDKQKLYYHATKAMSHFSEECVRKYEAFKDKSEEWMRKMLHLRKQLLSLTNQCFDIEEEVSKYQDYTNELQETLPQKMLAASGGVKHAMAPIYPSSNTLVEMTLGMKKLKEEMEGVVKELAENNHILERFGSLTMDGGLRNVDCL
The series can be described thus: Inhibition of TBK1 phosphorylation in LPS-induced mouse RAW264.7 cells preincubated with compound for 2 hrs followed by LPS stimulation and measured after 6 hrs by Western blot analysis. It counts as cell-based. Conditions: dose 0.5-2 µM, time 8.0 hrs.

Series [5] addresses Transcription factor p65 (Mus musculus) (UniProt Q04207). The series can be described thus: Inhibition of p65 phosphorylation in LPS-induced mouse RAW264.7 cells preincubated with compound for 2 hrs followed by LPS stimulation and measured after 6 hrs by Western blot analysis. It counts as cell-based. Conditions: dose 0.5-2 µM, time 8.0 hrs. A general note: A western blot detects proteins with antibodies after separation by electrophoresis.

For series [6], the system named is RAW264.7. The series is described as follows: Anti inflammatory activity in LPS-induced mouse RAW264.7 cells assessed as inhibition of NO production at 5 uM preincubated with compound for 2 hrs followed by LPS stimulation and measured after 24 hrs by griess reagent based assay relative to control. It counts as functional. Conditions: time 26 hrs. A general note: Griess reagent forms a coloured azo dye with nitrite.

The target in series [7] is T2, Inhibitor of nuclear factor kappa-B kinase subunit beta (Mus musculus) (UniProt O88351).
T2 sequence (whole entry): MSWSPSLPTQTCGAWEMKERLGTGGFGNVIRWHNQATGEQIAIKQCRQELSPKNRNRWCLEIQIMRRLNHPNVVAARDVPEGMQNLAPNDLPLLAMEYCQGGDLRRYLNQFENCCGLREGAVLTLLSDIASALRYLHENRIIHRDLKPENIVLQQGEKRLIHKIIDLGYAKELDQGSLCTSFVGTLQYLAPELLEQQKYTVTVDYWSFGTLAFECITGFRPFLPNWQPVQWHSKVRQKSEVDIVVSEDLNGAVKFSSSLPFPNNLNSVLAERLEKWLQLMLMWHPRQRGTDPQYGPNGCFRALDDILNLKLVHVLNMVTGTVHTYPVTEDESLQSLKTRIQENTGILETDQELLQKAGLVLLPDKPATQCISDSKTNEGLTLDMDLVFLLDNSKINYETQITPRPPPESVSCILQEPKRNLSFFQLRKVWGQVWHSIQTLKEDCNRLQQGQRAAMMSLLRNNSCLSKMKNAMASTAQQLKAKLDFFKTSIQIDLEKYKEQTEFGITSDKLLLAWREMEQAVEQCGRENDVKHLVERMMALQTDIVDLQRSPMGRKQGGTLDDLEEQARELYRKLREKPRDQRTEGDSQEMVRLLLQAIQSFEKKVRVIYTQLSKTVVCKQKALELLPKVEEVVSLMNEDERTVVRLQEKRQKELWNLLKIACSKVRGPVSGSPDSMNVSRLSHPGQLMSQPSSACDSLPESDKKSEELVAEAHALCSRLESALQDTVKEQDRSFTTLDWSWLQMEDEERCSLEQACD
The series is described as follows: Inhibition of IkappaB phosphorylation in LPS-induced mouse RAW264.7 cells preincubated with compound for 2 hrs followed by LPS stimulation and measured after 6 hrs by Western blot analysis. Conditions: dose 0.5-2 µM, time 8.0 hrs. It counts as cell-based.

The subject of series [8] is RAW264.7. The series is described as follows: Anti inflammatory activity in LPS-induced mouse RAW264.7 cells assessed as inhibition of NO production at 2.5 uM preincubated with compound for 2 hrs followed by LPS stimulation and measured after 24 hrs by griess reagent based assay relative to control. Conditions: time 26 hrs. The format is functional.
Series [9] concerns Mus musculus. The series can be described thus: Protective activity against LPS induced sepsis in BALB/c mouse model of acute liver injury assessed as improvement in blurred boundaries in liver tissue at 1.25 to 5 mg/kg, IG administered once a day for 3 days followed by LPS stimulation for 12 hrs starting from 2 hrs post last dose by hematoxylin and eosin staining based analysis. Conditions: dose 1.25-5 mg/kg, time 86.0 hrs. The format is functional, organism-based.

Series [10] is described as follows: MRT(0 to infinity) in Sprague-Dawley rat administered intragastrically. The format is ADME. Conditions: in vivo, po, route ig.
The target of series [11] is T3, Stimulator of interferon genes protein (Mus musculus) (UniProt Q3TBT3).
T3 sequence (whole entry): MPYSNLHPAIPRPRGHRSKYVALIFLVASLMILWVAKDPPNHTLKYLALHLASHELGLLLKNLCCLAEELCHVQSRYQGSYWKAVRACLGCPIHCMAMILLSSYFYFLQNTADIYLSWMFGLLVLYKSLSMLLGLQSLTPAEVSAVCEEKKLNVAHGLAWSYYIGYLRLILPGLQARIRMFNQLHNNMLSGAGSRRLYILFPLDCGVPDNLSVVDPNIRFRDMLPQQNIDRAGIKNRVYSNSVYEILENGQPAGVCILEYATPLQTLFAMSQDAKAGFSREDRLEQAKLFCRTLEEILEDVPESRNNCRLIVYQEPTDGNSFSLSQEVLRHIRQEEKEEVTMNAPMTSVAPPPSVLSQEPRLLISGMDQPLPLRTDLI
The series is described as follows: In vivo inhibition of STING in BALB/c mouse model of LPS induced sepsis assessed as inhibition of upregulation of phosphorylated TBK1 […] expression at 1.25 to 5 mg/kg, IG administered once a day for 3 days followed by LPS stimulation for 12 hrs starting from 2 hrs post last dose by Western blot analysis. The format is functional, organism-based. Conditions: dose 1.25-5 mg/kg, time 86.0 hrs.

The subject of series [12] is Mus musculus. The series is described as follows: Antiinflammatory activity in BALB/c mouse model of LPS induced sepsis assessed as inhibition of IL-6 production at 1.25 to 5 mg/kg, IG administered once a day for 3 days followed by LPS stimulation for 12 hrs starting from 2 hrs post last dose by qRT-PCR analysis. It counts as functional, organism-based. Conditions: dose 1.25-5 mg/kg, time 86.0 hrs.

Activity calls are given as the source filed them. The rule behind the calls is not given here.

Chain of Transcription factor p65 (Mus musculus) (Q04207 whole entry): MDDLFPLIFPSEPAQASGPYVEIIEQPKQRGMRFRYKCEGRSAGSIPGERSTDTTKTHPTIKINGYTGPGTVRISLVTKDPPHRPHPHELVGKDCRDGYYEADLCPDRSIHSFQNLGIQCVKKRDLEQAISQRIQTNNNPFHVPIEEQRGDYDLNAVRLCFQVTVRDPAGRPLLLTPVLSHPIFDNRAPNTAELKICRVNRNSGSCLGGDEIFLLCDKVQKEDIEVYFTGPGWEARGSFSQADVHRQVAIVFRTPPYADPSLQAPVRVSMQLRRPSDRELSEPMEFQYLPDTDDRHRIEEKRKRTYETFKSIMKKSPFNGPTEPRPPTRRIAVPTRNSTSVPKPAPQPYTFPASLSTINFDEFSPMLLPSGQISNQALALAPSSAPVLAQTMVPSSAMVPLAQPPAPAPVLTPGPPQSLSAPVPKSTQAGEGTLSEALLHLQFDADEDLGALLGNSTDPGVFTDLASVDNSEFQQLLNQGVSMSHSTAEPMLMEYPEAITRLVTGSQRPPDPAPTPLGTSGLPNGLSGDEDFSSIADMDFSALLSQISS

For the molecule `C=CCONC(=O)CCSSCCC(=O)O[C@@H]1CC[C@@]2(C)[C@@H](CC[C@@]3(C)[C@H]2[C@H](O)C[C@H]2/C(=C(\CCC=C(C)C)C(=O)OCc4ccccc4)[C@@H](OC(C)=O)C[C@@]23C)[C@@H]1C`, the inhibition entry in [1], in [11] and in series [12] was “Active” throughout. In addition, the AUC(0-inf) in series [2] came to 136 ng·h/mL. This molecule showed a Cmax in series [3] of 66.5 ng/mL. The inhibition entry in series [4], in [5] and in series [7] was “Dose-Dependent Effect” throughout. Besides, in [6], the inhibition at 5 µM came out at 78.7%. In addition, the inhibition at 2.5 µM in series [8] worked out at 69.3%. The outcome in [9] was Active. The mean residence time (MRT inf) in series [10] came to 2.02 h.

One may read the inhibition as the relative decrease from the control value, in per cent. As usually defined, the AUC(0-inf) is total exposure, with the tail of the curve extrapolated. Low values mean low exposure, high ones high exposure. In general, Cmax refers to the maximum level reached in the sampled fluid or tissue. Broadly, the MRT inf is a mean duration of stay, worked out from the concentration-time curve.

The values are drawn from ChEMBL document CHEMBL5247586, “Discovery of fusidic acid derivatives as novel STING inhibitors for treatment of sepsis” (Eur J Med Chem, 2022).
